Experimental data taken from patent publication US6869955B2, “Tetrahydropteridines and pyridylpiperazines for treatment of neurological disorders” (Bristol-Myers Squibb Pharma Company, priority 1996, dated 2005).

Row | melting point | SMILES
1 | 146 to 147 °C | CCCCN(CC)c1nc(C)nc2c1NC(=O)CN2c1ccc(C(C)C)cc1Br [Example 1, 8-(2-bromo-4-isopropylphenyl)-4-(ethylbutylamino)-2-methyl-5,6,7,8-tetrahydropteridin-6-one]
2 | 238 to 239 °C | Cc1nc(-c2ccccc2C(F)(F)F)c2c(n1)N(c1ccc(C(C)C)cc1Br)CC(=O)N2 [Example 17, 8-(2-bromo-4-isopropylphenyl)-2-methyl-4-(2-trifluoromethylphenyl)-5,6,7,8-tetrahydropteridin-6-one]
3 | 148 to 149 °C | CCCCN(CC)c1nc(C)nc2c1NC(=S)CN2c1ccc(C(C)C)cc1Br [Example 131, 8-(2-bromo-4-isopropylphenyl)-4-(ethylbutylamino)-2-methyl-5,6,7,8-tetrahydropteridin-6-thione]
4 | 207 to 208 °C | CCCCN1C(=O)CN2C(=O)CN(c3ccc(C(C)C)cc3Br)c3nc(C)nc1c32 [Example 501, 10-[2-bromo-4-(1-methylethyl)-phenyl]-4-butyl-9,10-dihydro-2-methyl-4H,8H-pyrazino[3,2,1-de]pteridine-5,8(6H)-dione]
